Reference: publication PMC5601486, “Identification of 4-phenylquinolin-2(1H)-one as a specific allosteric inhibitor of Akt” (Scientific Reports, 2017)

Assays:
Test in all cases: KINOMEscan
Conditions in all cases: 50000 nM
GSK3B = test system: GSK3B
Method: KINOMEscan™ selectivity screen
(§1) Briefly, Kinase-tagged T7 phage strains were grown in parallel in an E. coli host derived from the BL21 strain. E. coli were grown to log-phase and infected with T7 phage from a frozen stock and incubated with shaking at 32°C until lysis (90-150 minutes). The kinases were produced in HEK-293 cells and subsequently tagged with DNA for qPCR detection. Streptavidin-coated magnetic beads were treated with biotinylated small molecule ligands to generate affinity resins for kinase
(§2) inhibitor or DMSO control was performed in polypropylene 384-well plates for 1 hr at room temperature. After wash with PBS buffer containing 0.05% Tween 20, the beads were incubated in elution buffer (PBS containing 0.05 % Tween 20 and 0.5 μM non-biotinylated affinity ligand) for 30 minutes at room temperature. The kinase concentration in the eluates was measured by qPCR.

MLK2 = test system: MLK2
Method: KINOMEscan™ selectivity screen
(§3) The assay was perfor med at DiscoveRx Corporation according the methods published previously5. Briefly, Kinase-tagged T7 phage strains were grown in parallel in an E. coli host derived from the BL21 strain. E. coli were grown to log-phase and infected with T7 phage from a frozen stock and incubated with shaking at 32°C until lysis (90-150 minutes). The kinases were produced in HEK-293 cells and subsequently tagged with DNA for qPCR detection. Streptavidin-coated magnetic beads were treated with biotinylated small molecule ligands to generate affinity resins for kinase
as §2

PFTAIRE2 = test system: PFTAIRE2
Method: KINOMEscan™ selectivity screen
as §3, §2

LIMK1 = test system: LIMK1
Method: KINOMEscan™ selectivity screen
as §3, §2

GRK3 = test system: GRK3
Method: KINOMEscan™ selectivity screen
as §1, §2

EPHA8 = test system: EPHA8
Method: KINOMEscan™ selectivity screen
as §3, §2

MAP3K1 = test system: MAP3K1
Method: KINOMEscan™ selectivity screen
as §1, §2

RIPK4 = test system: RIPK4
Method: KINOMEscan™ selectivity screen
as §3, §2

FLT3 = test system: FLT3
Method: KINOMEscan™ selectivity screen
as §3, §2

SBK1 = test system: SBK1
Method: KINOMEscan™ selectivity screen
as §3, §2

[1] = test system: RSK1(Kin.Dom.1-N-terminal)
Method: KINOMEscan™ selectivity screen
as §1, §2

CDC2L1 = test system: CDC2L1
Method: KINOMEscan™ selectivity screen
as §1, §2

BRSK1 = test system: BRSK1
Method: KINOMEscan™ selectivity screen
as §3, §2

CAMKK1 = test system: CAMKK1
Method: KINOMEscan™ selectivity screen
as §3, §2

QSK = test system: QSK
Method: KINOMEscan™ selectivity screen
as §3, §2

EPHB6 = test system: EPHB6
Method: KINOMEscan™ selectivity screen
as §3, §2

ACVR1B = test system: ACVR1B
Method: KINOMEscan™ selectivity screen
as §3, §2

LKB1 = test system: LKB1
Method: KINOMEscan™ selectivity screen
The assay was perfor med at DiscoveRx Corporation according the methods published previously5. […] The kinases were produced in HEK-293 cells and subsequently tagged with DNA for qPCR detection. Streptavidin-coated magnetic beads were treated with biotinylated small molecule ligands to generate affinity resins for kinase
as §2

MUSK = test system: MUSK
Method: KINOMEscan™ selectivity screen
The kinases were produced in HEK-293 cells and subsequently tagged with DNA for qPCR detection. Streptavidin-coated magnetic beads were treated with biotinylated small molecule ligands to generate affinity resins for kinase
as §2

TXK = test system: TXK
Method: KINOMEscan™ selectivity screen
as §3, §2

IKK-alpha = test system: IKK-alpha
Method: KINOMEscan™ selectivity screen
as §3, §2

TTK = test system: TTK
Method: KINOMEscan™ selectivity screen
as §1, §2

[2] = test system: EGFR(L747-S752del, P753S)
Method: as §1, §2

NEK4 = test system: NEK4
Method: KINOMEscan™ selectivity screen
as §3, §2

MAP3K4 = test system: MAP3K4
Method: KINOMEscan™ selectivity screen
as §3, §2

EGFR(L747-T751del,Sins) = test system: EGFR(L747-T751del,Sins)
Method: KINOMEscan™ selectivity screen
as §1, §2

PHKG1 = test system: PHKG1
Method: KINOMEscan™ selectivity screen
as §1, §2

[3] = test system: RSK4(Kin.Dom.1-N-terminal)
Method: KINOMEscan™ selectivity screen
as §3, §2

TIE2 = test system: TIE2
Method: KINOMEscan™ selectivity screen
as §3, §2

CLK4 = test system: CLK4
Method: KINOMEscan™ selectivity screen
as §3, §2

PIK3CG = test system: PIK3CG
Method: KINOMEscan™ selectivity screen
as §1, §2

PRKCD = test system: PRKCD
Method: KINOMEscan™ selectivity screen
as §3, §2

ROCK2 = test system: ROCK2
Method: KINOMEscan™ selectivity screen
as §3, §2

ACVRL1 = test system: ACVRL1
Method: KINOMEscan™ selectivity screen
as §3, §2

CSNK1D = test system: CSNK1D
Method: KINOMEscan™ selectivity screen
as §3, §2

FLT3(N841I) = test system: FLT3(N841I)
Method: KINOMEscan™ selectivity screen
as §1, §2

FYN = test system: FYN
Method: KINOMEscan™ selectivity screen
as §3, §2

ABL2 = test system: ABL2
Method: KINOMEscan™ selectivity screen
as §3, §2

MARK3 = test system: MARK3
Method: KINOMEscan™ selectivity screen
as §3, §2

CDK4 = test system: CDK4
Method: KINOMEscan™ selectivity screen
as §1, §2

MYO3B = test system: MYO3B
Method: KINOMEscan™ selectivity screen
as §3, §2

NEK3 = test system: NEK3
Method: KINOMEscan™ selectivity screen
as §3, §2

RIPK2 = test system: RIPK2
Method: KINOMEscan™ selectivity screen
as §3, §2

ANKK1 = test system: ANKK1
Method: KINOMEscan™ selectivity screen
as §3, §2

ZAK = test system: ZAK
Method: KINOMEscan™ selectivity screen
as §1, §2

CDK8 = test system: CDK8
Method: KINOMEscan™ selectivity screen
as §3, §2

DYRK2 = test system: DYRK2
Method: KINOMEscan™ selectivity screen
as §3, §2

ACVR1 = test system: ACVR1
Method: KINOMEscan™ selectivity screen
as §3, §2

TSSK1B = test system: TSSK1B
Method: KINOMEscan™ selectivity screen
Briefly, Kinase-tagged T7 phage strains were grown in parallel in an E. coli host derived from the BL21 strain. E. coli were grown to log-phase and infected with T7 phage from a frozen stock and incubated with shaking at 32°C until lysis (90-150 minutes). The kinases were produced in HEK-293 cells and subsequently tagged with DNA for qPCR detection.
After wash with PBS buffer containing 0.05% Tween 20, the beads were incubated in elution buffer (PBS containing 0.05 % Tween 20 and 0.5 μM non-biotinylated affinity ligand) for 30 minutes at room temperature. The kinase concentration in the eluates was measured by qPCR.

NEK10 = test system: NEK10
Method: KINOMEscan™ selectivity screen
as §3, §2

AURKA = test system: AURKA
Method: KINOMEscan™ selectivity screen
as §3, §2

ASK1 = test system: ASK1
Method: KINOMEscan™ selectivity screen
as §3, §2

[4] = test system: RPS6KA5(Kin.Dom.1-N-terminal)
Method: KINOMEscan™ selectivity screen
as §3, §2

PRKCQ = test system: PRKCQ
Method: KINOMEscan™ selectivity screen
as §3, §2

## Oc1cc(-c2ccccc2)c2ccccc2n1 [G7, 4-phenylquinolin-2(1H)-one]
GSK3B
  Percent Control: 68%
MLK2
  Percent Control: 100%
PFTAIRE2
  Percent Control: 81%
LIMK1
  Percent Control: 100%
GRK3
  Percent Control: 100%
EPHA8
  Percent Control: 93%
MAP3K1
  Percent Control: 71%
RIPK4
  Percent Control: 80%
FLT3
  Percent Control: 13%
SBK1
  Percent Control: 86%
[1]
  Percent Control: 23%
CDC2L1
  Percent Control: 100%
BRSK1
  Percent Control: 72%
CAMKK1
  Percent Control: 80%
QSK
  Percent Control: 85%
EPHB6
  Percent Control: 14%
ACVR1B
  Percent Control: 100%
LKB1
  Percent Control: 96%
MUSK
  Percent Control: 75%
TXK
  Percent Control: 93%
IKK-alpha
  Percent Control: 92%
TTK
  Percent Control: 24%
[2]
  Percent Control: 84%
NEK4
  Percent Control: 95%
MAP3K4
  Percent Control: 100%
EGFR(L747-T751del,Sins)
  Percent Control: 77%
PHKG1
  Percent Control: 79%
[3]
  Percent Control: 34%
TIE2
  Percent Control: 100%
CLK4
  Percent Control: 80%
PIK3CG
  Percent Control: 94%
PRKCD
  Percent Control: 100%
ROCK2
  Percent Control: 81%
ACVRL1
  Percent Control: 100%
CSNK1D
  Percent Control: 45%
FLT3(N841I)
  Percent Control: 30%
FYN
  Percent Control: 89%
ABL2
  Percent Control: 94%
MARK3
  Percent Control: 87%
CDK4
  Percent Control: 100%
MYO3B
  Percent Control: 100%
NEK3
  Percent Control: 68%
RIPK2
  Percent Control: 82%
ANKK1
  Percent Control: 73%
ZAK
  Percent Control: 100%
CDK8
  Percent Control: 85%
DYRK2
  Percent Control: 72%
ACVR1
  Percent Control: 100%
TSSK1B
  Percent Control: 93%
NEK10
  Percent Control: 66%
AURKA
  Percent Control: 50%
ASK1
  Percent Control: 94%
[4]
  Percent Control: 89%
PRKCQ
  Percent Control: 81%
